What follows are compounds tested on Aβ42 (assay: Cellular assay for inhibition of Aβ1-42 production (H4 APP751 SWE clone 8.20)). Conditions: 19 h, H4 APP751 SWE clone 8.20 cells, 19 h incubation; read-out: Activity Rating (Aβ42 cellular IC50), class symbol.
Type: cell-based
Experimental: Cellular Assays for Inhibition of Aβ1-40 and Aβ1-42 Production
H4 cells stably transfected with APP751 containing the Swedish mutation (H4 APP751 SWE clone 8.20, developed at BMS) were maintained in log phase through twice weekly passage at a 1:20 split. […] Following incubation for 19 h in 5% CO2 at 37° C., plates were briefly centrifuged (1000 rpm, 5 min). A 10 μl aliquot from each well was transferred to a second assay plate (Costar 3709) for Aβ40 measurements. Antibody cocktails were freshly prepared by dilution into 40 mM Tris-HCl (pH 7.4) with 0.2% BSA and added to assay plates. For Aβ42 measurements, antibodies specific for the Aβ42 neoepitope (565, developed at BMS; conjugated to the Wallac reagent (Perkin Elmer)) and the N-terminal sequence of Aβ peptide (26D6, developed at SIBIA; conjugated to APC (Perkin Elmer)) were mixed and 20 μl of the mixture was added to each well of the incubated cell plate yielding a final concentration of 0.8 ng/well 565 and 75 ng/well 26D6. For the Aβ40 measurements, antibodies specific for the Aβ40 neoepitope (TSD, developed at BMS; conjugated to the Wallac reagent (Perkin Elmer)) and 26D6 as described above were mixed and 20 μl of the mixture was added to the 10 μl aliquots which had been removed previously from the cell plate yielding a final concentration of 1.6 ng/well TSD and 17.5 ng/well 26D6. Assay plates containing antibodies were sealed with aluminum foil and incubated overnight at 4° C. Signal was determined using a Viewlux counter (Perkin Elmer) and IC50 values determined using curve fitting in CurveMaster (Excel Fit based).

Compound	IC50
Cc1ncnn1-c1ccc2cc1OCCCCN(C)c1nc(nc3c1CCC3c1ccccc1)N2 (centres unmarked) [Example 48A, 14-methyl-7-(5-methyl-1H-1,2,4-triazol-1-yl)-18-phenyl-10,11,12,13,14,16,17,18-octahydro-15,2-(azeno)-8,4-(metheno)cyclopenta[h][1,6,10,12]oxatriazacycloheptadecine]	< 10 nM
Cc1ncn(-c2ccc3cc2OCCCN(C)c2nc(nc4c2CCC4c2ccc(F)cc2)N3)n1 (centres unmarked) [Example 65B, 13-methyl-7-(3-methyl-1H-1,2,4-triazol-1-yl)-17-(4-fluorophenyl)-11,12,13,15,16,17-hexahydro-10H-14,2-(azeno)-8,4-(metheno)cyclopenta[g][1,5,9,11]oxatriazacyclohexadecine]	10 to 100 nM
CN1CCCOc2cc(ccc2-n2cnc(Cl)c2)Nc2nc3c(c1n2)CCC3c1ccc(F)cc1F (centres unmarked) [Example 20A, 7-(4-chloro-1H-imidazol-1-yl)-17-(2,4-difluorophenyl)-13-methyl-11,12,13,15,16,17-hexahydro-10H-14,2-(azeno)-8,4-(metheno)cyclopenta[g][1,5,9,11]oxatriazacyclohexadecine]	< 10 nM
Clc1cn(-c2ccc3cc2OCCCCCNc2nc(nc4c2CCC4c2ccccc2)N3)cn1 (centres unmarked) [Example 11B, 7-(4-chloro-1H-imidazol-1-yl)-19-phenyl-3,10,11,12,13,14,15,17,18,19-decahydro-2,16-(azeno)-8,4-(metheno)cyclopenta[f][1,7,9,13]oxatriazacyclooctadecine]	10 to 100 nM
N#Cc1ccc2cc1OCC(O)CCNc1nc(nc3c1CCC3c1ccc(F)cc1)N2 (single isomer, unassigned) [Example 73A, 7-cyano-18-(4-fluorophenyl)-10,11,12,13,14,16,17,18-octahydro-15,2-(azeno)-8,4-(metheno)cyclopenta[h][1,6,10,12]oxatriazacycloheptadecin-11(3H)-ol]	10 to 100 nM
CN1Cc2c3nc(nc2C(c2ccc(F)cc2)C1)Nc1ccc(C#N)c(c1)OCCCCN3 (racemic) [Example 71, 7-cyano-19-(4-fluorophenyl)-17-methyl-11, 12, 13,14,16,17,18,19-octahydro-10H-15,2-(azeno)-8,4-(metheno)pyrido[3,4-h][1,6,10,12]oxatriazacycloheptadecine]	10 to 100 nM

Further lines, results first:

IC50	Compound
10 to 100 nM	CN1Cc2c(nc3nc2N(C)C/C=C\COc2cc(ccc2C#N)N3)C(c2ccc(F)cc2)C1 (racemic) [Example 74, (11Z)-14,17-dimethyl-7-cyano-19-(4-fluorophenyl)-13,14,16,17,18,19-hexahydro-10H-15,2-(azeno)-8,4-(metheno)pyrido[3,4-h][1,6,10,12]oxatriazacycloheptadecine]
< 10 nM	Clc1cn(-c2ccc3cc2OCCCNc2nc(nc4c2CCC4c2ccccc2)N3)cn1 (centres unmarked) [Example 9A, 7-(4-chloro-1H-imidazol-1-yl)-17-phenyl-11,12,13,15,16,17-hexahydro-10H-14,2-(azeno)-8,4-(metheno)cyclopenta[g][1,5,9,11]oxatriazacyclohexadecine]

Same assay, conditions: 19 h, H4 APP751 SWE clone 8.20 cells, 19 h incubation; unit inferred; read-out: Activity Rating (Aβ42 cellular IC50), numeric value

IC50	Compound
140 nM	CN1CCCOc2cc(ccc2C#N)Nc2nc3c(c1n2)CCC3c1ccc(F)cc1F (centres unmarked) [Example 35B, 7-cyano-17-(2,4-difluorophenyl)-13-methyl-11,12,13,15,16,17-hexahydro-10H-14,2-(azeno)-8,4-(metheno)cyclopenta[g][1,5,9,11]oxatriazacyclohexadecine]
3.6 nM	CC1C/C=C\COc2cc(ccc2-n2cnc(Cl)c2)Nc2nc(c3c(n2)C(c2ccccc2)CC3)N1 (centres unmarked) [Example 6A, (11Z)-7-(4-chloro-1H-imidazol-1-yl)-14-methyl-19-phenyl-3,10,13,14,15,17,18,19-octahydro-2,16-(azeno)-8,4-(metheno)cyclopenta[j][1,7,9,13]oxatriazacyclooctadecine]
5.6 nM	Cc1ncnn1-c1ccc2cc1OCCCCNc1nc(nc3c1CCC3c1ccccc1)N2 (centres unmarked) [Example 47A, 7-(5-methyl-1H-1,2,4-triazol-1-yl)-18-phenyl-10,11,12,13,14,16,17,18-octahydro-15,2-(azeno)-8,4-(metheno)cyclopenta[h][1,6,10,12]oxatriazacycloheptadecine]

Same assay, conditions: H4 APP751 SWE clone 8.20 cells, 19 h incubation; read-out: Activity Rating (Aβ42 cellular IC50), class symbol

Compound	IC50
Cc1ncn(-c2ccc3cc2OCC=CCNc2nc(nc4c2CCC4c2ccc(F)cc2)N3)n1 (centres unmarked) [Example 46B, (11E)-18-(4-fluorophenyl)-7-(3-methyl-1H-1,2,4-triazol-1-yl)-10,13,14,16,17,18-hexahydro-15,2-(azeno)-8,4-(metheno)cyclopenta[h][1,6,10,12]oxatriazacycloheptadecine]	100 to 1000 nM
Cc1ncn(-c2ccc3cc2OCC(O)CCNc2nc(nc4c2CCC4c2ccc(F)cc2)N3)n1 (single isomer, unassigned) [Example 72D, 18-(4-fluorophenyl)-7-(3-methyl-1H-1,2,4-triazol-1-yl)-10,11,12,13,14,16,17,18-octahydro-15,2-(azeno)-8,4-(metheno)cyclopenta[h][1,6,10,12]oxatriazacycloheptadecin-11(3H)-ol]	< 10 nM
Cc1ncn(-c2ccc3cc2OC/C=C/CNc2nc(nc4c2CCC4c2ccc(F)cc2F)N3)n1 (centres unmarked) [Example 52B, (11E)-18-(2,4-difluorophenyl)-7-(3-methyl-1H-1,2,4-triazol-1-yl)-10,13,14,16,17,18-hexahydro-15,2-(azeno)-8,4-(metheno)cyclopenta[h][1,6,10,12]oxatriazacycloheptadecine]	10 to 100 nM
Cc1ncnn1-c1ccc2cc1OCC=CCNc1nc(nc3c1CCC3c1ccccc1)N2 (centres unmarked) [Example 42B, (11Z)-7-(5-methyl-1H-1,2,4-triazol-1-yl)-18-phenyl-10,13,14,16,17,18-hexahydro-15,2-(azeno)-8,4-(metheno)cyclopenta[h][1,6,10,12]oxatriazacycloheptadecine]	10 to 100 nM
CN1CCNc2nc(nc3c2CCC3c2ccc(F)cc2)Nc2ccc(C#N)c(c2)OCC1 (single isomer, unassigned) [Example 27A, 7-cyano-19-(4-fluorophenyl)-12-methyl-11,12,13,14,15,17,18,19-octahydro-10H-16,2-(azeno)-8,4-(metheno)cyclopenta[i][1,4,7,11,13]oxatetraazacyclooctadecine]	10 to 100 nM
CN1CCCCOc2cc(ccc2C#N)Nc2nc3c(c1n2)CCC3c1ccc(F)cc1F (single isomer, unassigned) [Example 32B, 7-cyano-18-(2,4-difluorophenyl)-14-methyl-10,11,12,13,14,16,17,18-octahydro-15,2-(azeno)-8,4-(metheno)cyclopenta[h][1,6,10,12]oxatriazacycloheptadecine]	100 to 1000 nM
Fc1ccc(C2CCc3c4nc(nc32)Nc2ccc(-n3cnc(Cl)c3)c(c2)OCC=CCN4)c(F)c1 (centres unmarked) [Example 14A, (11Z)-7-(4-chloro-1H-imidazol-1-yl)-18-(2,4-difluorophenyl)-10,13,14,16,17,18-hexahydro-15,2-(azeno)-8,4-(metheno)cyclopenta[h][1,6,10,12]oxatriazacycloheptadecine]	< 10 nM

Further lines, results first:

IC50	Compound
10 to 100 nM	(11Z)-7-(4-chloro-1H-imidazol-1-yl)-18-phenyl-10,13,14,16,17,18-hexahydro-15,2-(azeno)-8,4-(metheno)cyclopenta[h][1,6,10,12]oxatriazacycloheptadecine [Example 1B]
100 to 1000 nM	N#Cc1ccc2cc1OCCNCCNc1nc(nc3c1CCC3c1ccc(F)cc1)N2 (single isomer, unassigned) [Example 26B, 7-cyano-19-(4-fluorophenyl)-11,12,13,14,15,17,18,19-octahydro-10H-16,2-(azeno)-8,4-(metheno)cyclopenta[i][1,4,7,11,13]oxatetraazacyclooctadecine]
< 10 nM	Clc1cn(-c2ccc3cc2OC/C=C/CCNc2nc(nc4c2CCC4c2ccccc2)N3)cn1 (centres unmarked) [Example 5A, (11E)-7-(4-chloro-1H-imidazol-1-yl)-19-phenyl-3,10,13,14,15,17,18,19-octahydro-2,16-(azeno)-8,4-(metheno)cyclopenta[j][1,7,9,13]oxatriazacyclooctadecine]

Same assay, conditions: H4 APP751 SWE clone 8.20 cells, 19 h incubation; unit inferred; read-out: Activity Rating (Aβ42 cellular IC50), numeric value

IC50	Compound
4 nM	Cc1ncn(-c2ccc3cc2OCC=CCNc2nc(nc4c2CCC4c2ccccc2)N3)n1 (centres unmarked) [Example 39A, (11Z)-7-(3-methyl-1H-1,2,4-triazol-1-yl)-18-phenyl-10,13,14,16,17,18-hexahydro-15,2-(azeno)-8,4-(metheno)cyclopenta[h][1,6,10,12]oxatriazacycloheptadecine]
32 nM	Cc1ncn(-c2ccc3cc2OCC=CCCc2nc(nc4c2CCC4c2ccccc2)N3)n1 (centres unmarked) [Example 59B, (11E)-7-(3-methyl-1H-1,2,4-triazol-1-yl)-18-phenyl-10,13,14,16,17,18-hexahydro-15,2-(azeno)-8,4-(metheno)cyclopenta[h][1,10,12]oxadiazacycloheptadecine]

— patent publication US8637523B2, “Compounds for the reduction of beta-amyloid production” (Bristol-Myers Squibb Company, priority 2010, dated 2014)
